Data: patent publication US20120053168A1, “FUSED BENZOAZEPINES AS NEURONAL NICOTINIC ACETYLCHOLINE RECEPTOR LIGANDS” (Targacept, Inc., priority 2009, published 2012)

Test system: animals impaired with scopolamine
Assay: Radial Arm Maze (RAM) task, scopolamine-induced cognitive deficits
Type: in vivo, rat
Details: 3 mg/kg (15.1 μmol/kg) p.o.
Experimental: Working memory is a cognitive domain known to be impaired in schizophrenia; the Radial Arm Maze task is commonly used to assess potential cognitive benefit derived from the test compounds. Using this assay, Compound A (7,8,9,10-tetrahydro-6H-azepino[4,5-g]quinoxaline) attenuated cognitive deficits induced by scopolamine in an animal model of working memory. Working memory was assessed in a 3 trial radial arm maze (RAM) task. The RAM task was conducted using an automated eight-arm maze (Med Associates, Inc.) The maze was located on a circular table approximately 88 cm above the floor with overhead lighting in a dedicated testing room and large, high contrast geometric shapes on the wall. […] The central platform measured 30.5 cm in diameter with eight arms (9 cm W×45.7 cm L×16.8 cm H) radiating from it. […] Activity on the maze was monitored by tracking quantitative activity (generated by infra-red beam breaks) on the computer interface and monitor screen.
Following the baseline assessment on day 1 and after re-attainment of test session criterion, animals were assessed for their sensitivity to chemically-induced cognitive impairment using the muscarinic antagonist scopolamine (0.2-0.4 mg/kg; s.c.). A dose of scopolamine was determined for each animal based on the minimum dose that produced significant and reliable cognitive impairment. […]

c1cnc2cc3c(cc2n1)CCNCC3 [Compound A, 7,8,9,10-tetrahydro-6H-azepino[4,5-g]quinoxaline]
effect on scopolamine-induced cognitive deficits, RAM: attenuated scopolamine-induced cognitive deficits
